Measured values: the NIST ThermoML archive (doi:10.1021/je300886k)

Tests used:
[1] = refractive index (Na D-line) (dimensionless); conditions: 298.15 K; 101.33 kPa; Liquid; Standard Abbe refractometry
[2] = Liquid; for mass density: 298.15 K, 101.33 kPa, Vibrating tube method; for vapor or sublimation pressure: Ebulliometric method (Recirculating still)
[3] = mn = molality of the nth substance listed, in mol/kg; conditions: 298.15 K, 101 kPa, Liquid, Vibrating tube method

CCO [ethanol]
Conditions	mass density [kg/m3]	refractive index
[1]	–	1.3599
[2]	785.22	–

Conditions	vapor or sublimation pressure [kPa]
[2], 352.75 K	101

CCOC(C)=O [ethyl acetate]
Conditions	mass density [kg/m3]	refractive index
[1]	–	1.3698
[2]	897.72	–

Conditions	vapor or sublimation pressure [kPa]
[2], 350.45 K	101

[Cl-].[Cl-].[Mg+2] [magnesium chloride] + CCO
[3]
Conditions	mass density [kg/m3]
m1 = 0.0105	782.98
m1 = 0.0211	783.73
m1 = 0.0317	784.5
m1 = 0.0423	785.26
m1 = 0.053	786.01
m1 = 0.0583	786.38
m1 = 0.0636	786.75
m1 = 0.0689	787.12
m1 = 0.0743	787.49
m1 = 0.0796	787.86
m1 = 0.085	788.23
m1 = 0.0903	788.57
m1 = 0.0957	788.93

O=[N+]([O-])[O-].O=[N+]([O-])[O-].[Mg+2] [magnesium nitrate] + CCO
[3]
Conditions	mass density [kg/m3]
m1 = 0.0067	782.9
m1 = 0.0135	783.59
m1 = 0.0203	784.17
m1 = 0.0271	784.79
m1 = 0.0339	785.43
m1 = 0.0373	785.75
m1 = 0.0407	786.06
m1 = 0.0441	786.43
m1 = 0.0475	786.74
m1 = 0.051	787.05
m1 = 0.0544	787.34
m1 = 0.0578	787.64
m1 = 0.0612	787.92
m1 = 0.0647	788.22
m1 = 0.0681	788.49

O=[N+]([O-])[O-].O=[N+]([O-])[O-].[Zn+2] [nitric acid, zinc salt] + CCO
[3]
Conditions	mass density [kg/m3]
m1 = 0.0053	785.9
m1 = 0.0106	786.55
m1 = 0.0159	787.2
m1 = 0.0212	787.84
m1 = 0.0265	788.49
m1 = 0.0292	788.78
m1 = 0.0319	789.09
m1 = 0.0346	789.38
m1 = 0.0372	789.7
m1 = 0.0399	789.99
m1 = 0.0426	790.29
m1 = 0.0453	790.6
m1 = 0.048	790.89
m1 = 0.0507	791.19
m1 = 0.0533	791.49
m1 = 0.0804	794.55
